Structures are written as SMILES.

This data set in a line: gradient 5% acetonitrile 3 min, to 50% in 2 min, to 85% in 15 min, held 3 min, 100 µL/min. The settings on record: column: Zorbax Extend-C18 2.1 x 50 mm; eluents: water / acetonitrile, 0.1% formic acid. In outline:
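The system's dead and dwell volumes were 40 μL and 900 μL, with a Zorbax Extend-C18 column (2.1 × 50 mm, 1.8 μm) run at 100 μL/min in water and acetonitrile containing 0.1% formic acid each. Pure standards were analyzed in mixtures of ~100 molecules by HPLC–quadrupole time-of-flight mass spectrometry in positive and negative ionization mode. Retention time was assigned from computationally picked, manually inspected adduct peaks.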
As for `COCCNC(=O)c1cn2cccc(C)c2n1`, the RP-LC retention time came to 561 s.
The same measure for `CCn1cc(C(=O)NCCc2cccs2)c(=O)c2cc(OC)ccc21`: 780 s; for `CCCNC(=O)N1CCCC1c1nc(-c2ccccc2)no1` (centres undefined): 816 s; for `Cc1nc(-c2ccncc2)nc2c1CCC(=O)N2Cc1cccs1`: 723 s.
In the case of `O=C(Cn1c2ccccc2n2c(=O)cc(-c3ccncc3)nc12)NC1CCCC1`, the RP-LC retention time was found to be 660 s.
As to `Cc1ccc(CNC(=O)C2CCN(C(=O)c3ncn4c3COC(c3ccccc3)C4)CC2)cc1` (centres undefined), the RP-LC retention time was determined as 782 s.
Next, `O=C(Cn1cccc1-c1nnc(C2CC2)o1)NCc1ccccc1Cl`: 815 s; `CCCCN(CC)C(=O)Cn1c(=O)c2cnc(-c3ccccc3)nc2n(C)c1=O`: 1070 s.
The same measure for `O=C(/C=C/c1ccc(CN(CCO)CCc2c[nH]c3ccccc23)cc1)NO`: 622 s; for `Cc1cc(C(=O)Nc2ccc3c(c2)C(=O)N(C)CCO3)no1`: 624 s; for `CN1C(=O)c2cc(C(=O)NCc3cccc(F)c3)nn2CC1(C)C(=O)NCc1ccccc1` (centres undefined): 747 s.
Next, `Cc1cccc(CN2CCC(CNC(=O)Nc3cn(C)c(=O)c4ccccc34)CC2)c1`: 603 s; `Cc1ccccc1CN1CC(F)(F)C[C@H]1COc1ccncc1`: 821 s.
On to `O=C(c1cnn(-c2ccccc2)n1)N1CC(c2nc3ccccc3[nH]2)C1`, for which the RP-LC retention time was determined as 578 s.
As for `CCOC(=O)c1ccc(NC(=O)Cn2cnc3nc(-c4cccnc4)ncc3c2=O)cc1`, the RP-LC retention time came to 686 s.
Next, `Cc1cccc(-c2ncccc2CNS(=O)(=O)c2ccc(Cl)s2)c1`: 785 s; `CC(=O)Nc1ccc(NC(=O)Cn2cccc(-c3nc(-c4ccc(Cl)cc4)no3)c2=O)cc1`: 937 s.
Compound `COc1ccc(-c2ncccc2CNS(=O)(=O)c2ccc(C#N)cc2)cc1` returned an RP-LC retention time of 673 s.
Regarding `O=C(Nc1c(C(=O)NCCc2ccccc2)[nH]c2ccc(F)cc12)c1ccccc1`, the RP-LC retention time is 998 s.
The compound `CCn1cc(CCNC(=O)Nc2cc(F)c(F)c(F)c2)c2cccnc21` showed an RP-LC retention time of 820 s.
Next, `Cc1cccc(-c2nnc(-c3nc(NCc4cccnc4)c4ccccc4n3)o2)c1`: 691 s; `CCc1nnc2c(=O)n(CC(=O)NCc3ccccc3)c3cccnc3n12`: 688 s.
`Cn1nc(C2CCN(S(=O)(=O)c3cccc(Cl)c3)CC2)n(C2CCCC2)c1=O` returned an RP-LC retention time of 925 s.
Next, `Cc1cnc(C(=O)N(C)C2CCc3nn(CC4CC4)c(=O)n3CC2)cn1` (centres undefined): 618 s.
Regarding `CCOC(=O)c1sc(NC(=O)C2CC2)nc1-c1ccccc1`, the RP-LC retention time came to 942 s.
Turning to `O=C(O)CCc1conc1-c1ccc(F)cc1`, the RP-LC retention time came out at 708 s.
Next, `O=C(CC(c1cccs1)n1cccc1)N1CCN(c2ccccn2)CC1` (centres undefined): 659 s.
Next, `O=C(NCCc1csc(C2CCCN(C(=O)C3CCOC3)C2)n1)C1CC1` (centres undefined): 753 s; `COCCOCc1nc(C2CCCN2S(=O)(=O)Cc2ccccc2)no1` (centres undefined): 748 s.
The same measure for `COc1cccc(CNC(=O)C2(C)CCCN(C(=O)Nc3cc(OC)ccc3OC)C2)c1` (centres undefined): 844 s.
The compound `CCNc1cc(N2CCC(CCC(=O)N3CCCC3)CC2)ncn1` had an RP-LC retention time of 608 s.
The same measure for `CN1c2ccc(F)cc2C(=O)NC12CCN(C(=O)c1ccccc1)CC2`: 726 s.
Next, `O=S(=O)(Cc1ccc(Cl)cc1)N1CCc2nc(-c3ccccc3)ncc2C1`: 1090 s; `Cc1ccc(C)c(CS(=O)(=O)N2CCC(CN3CCCCCC3)CC2)c1`: 700 s.

For the origin of these results see the METLIN SMRT retention time set (Domingo-Almenara et al. 2019).
